We go through 1 compound from patent US20050250837A1, “Use of C-Raf inhibitors for the treatment of neurodegenerative diseases” (priority 2002, published 2005).

The target of one test is C-Raf (Homo sapiens, UniProt P04049). The test is described as follows: In vitro kinase assay, purified kinase (Upstate Kinase Profiling). In kind it is biochemical.
For a further test, the system named is ERK 1/2. The experiment in a line: ERK 1/2 phosphorylation in neuronal cultures, Western blot. The class given is cell-based, rat. The following applies: LK plus GW5074, 1 or 3 hours. An excerpt:
Activation of all three Raf proteins results in activation of MEK and ERK.
Survival of cerebellar granule neurons can be maintained by BDNF and this effect of BDNF is mediated by the Raf-MEK-ERK signaling pathway (Bonni et al., 1999). The Raf-MEK-ERK pathway is also involved in promoting survival of other neuronal and normeuronal cell types. A potent blocker of the Raf-MEK-ERK pathway is PD98059 (Alessi et al., 1995). In paradigms in which the Raf-MEK-ERK pathway mediates neuronal survival, such as BDNF-treated cerebellar granule neurons, the presence of […] blocks survival (Bonni et al., 1999). […] Lysates from the cultures were subjected to Western blotting using an antibody specific for phospho-ERK.
For whole-cell lysates, the culture medium was discarded, the neurons washed twice with ice-cold phosphate-buffered saline (PBS), and lysed in lysis buffer (1% Triton, 20 mM Tris-HCl (pH 7.5), 150 mM NaCl, 1 mM Na2EDTA, 1 mM EGTA, 2.5 mM sodium pyrophosphate, 1 mM beta-glycerophosphate, 1 mM Na3VO4, 1 μg/ml leupeptin and 1× protease inhibitor mixture). Protein concentrations were measured using a Bradford protein assay kit (Bio-Rad), and equivalent amounts of protein were mixed with 6×SDS-PAGE sample buffer. […] After staining with Ponceau S to verify uniformity of protein loads/transfer, the membranes were analyzed for immunoreactivity. […]

The next test deals with B-Raf. The test is described as follows: Activity of B-Raf immunoprecipitated from neuronal lysates, MEK substrate. In kind it is cell-based, rat. The following applies: LK + 1 uM GW5074, 1 hour. On the procedure:
The reaction mixture was subjected to Western analysis using a phospho-MEK antibody as probe.
Activities of endogenous C-Raf and B-Raf activity was assayed by measuring the ability of kinase immunoprecipitated from neuronal lysates to phosphorylate a kinase-dead recombinant GST-MEK1 substrate. Following immunoprecipitation and multiple washes with lysis buffer, lysis buffer supplemented with 350 mM NaCl, and kinase buffer (25 mM HEPES pH 7.4 and 10 mM MgCl2), in vitro kinase assays are performed on the immune complexes using purified recombinant GST-MEK1 K97M protein as a substrate in kinase buffer supplemented with 85 μM ATP for 35 minutes at 30° C. Reactions are stopped by the addition of 3×SDS sample buffer and boiled for five minutes. Proteins are resolved by SDS-PAGE and subjected to Western blotting. The level of phosphorylated MEK is detected by a phospho-MEK antibody.

The test system of another test is Forkhead. The experiment in a line: Forkhead dephosphorylation in LK. In kind it is cell-based, rat. The following applies: data not shown. Here is the method:
The best-studied anti-apoptotic pathway in neurons is the PI-3 kinase-Akt signaling pathway (D'Mello et al., 1997; Dudek et al., 1997; Miller et al, 1997a). IGF-1, a potent survival-promotic factor for granule neurons mediates its effect by activating the PI-3 kinase-Akt pathway (Datta et al., 1997; Dudek et al., 1997; D'Mello et al., 1998). […] Switching cerebellar granule neurons from serum-containing HK medium in which they are cultured and allowed to mature, to serum-free LK or HK medium, causes a rapid downregulation of Akt phosphorylation and activity, which can be prevented by IGF-1 (Kumari et al., 2001). […] The same blot was reprobed with an antibody against phospho-Gskβ. Also loaded on the gel were lysates from untreated cultures (maintained in medium containing serum and high K+) and a culture treated for 1 hour with 25 ng/ml IGF-1. […] GSK3βis a proapoptotic molecule that is activated during apoptosis in many neuronal and normeuronal systems. Under survival promoting conditions GSK3β is kept inactivated by phosphorylation, a modification that can be induced by Akt. […] Another proapoptotic molecule that is phosphorylated and inactivated by Akt is the transcription factor, Forkhead ([…] et al., 2002). […] Switching of neurons to LK medium leads to a rapid downregulation of Akt activity within 2 hours.

Test [1] concerns cerebellar granule neurons. The experiment in a line: Apoptosis of neurons infected with adenoviral dominant-negative Akt. In kind it is cell-based, rat. The following applies: LK + 1 uM GW5074 or 25 ng/ml IGF-1. An excerpt: Five day old neuronal cultures were infected with adenoviral vectors expressing either GFP or hemagluttinin (HA)-tagged dominant-negative Akt. […] Infected neurons were detected by positive staining for GFP or HA by immunocytochemistry. The proportion of apoptotic cells (condensed or fragmented nuclei) as a percentage of total infected neurons was quantified following DAPI-staining.
DnAkt and control recombinant adenovirus expressing green fluorescent protein (Ad-GFP) are propagated in HEK293T cells and purified by cesium chloride density gradient centrifugation. After quantification of titer, virus at an MOI of 10 are used to infect granule neuron cultures 5 days after plating by direct addition to the medium. Treatments are performed 24 hours after addition of virus.

For the next test, the target named is cdk1 (Homo sapiens, UniProt P06493). The note with it: Lackey et al., 2000; cited from earlier work.
The target in a further test is VEGFR2 (Homo sapiens, UniProt P35968). The following applies: Lackey et al., 2000; cited from earlier work.
For the next test, the target named is c-fms (Homo sapiens, UniProt P07333). The note with it: Lackey et al., 2000; cited from earlier work.
Chain of c-fms (P07333 20-972): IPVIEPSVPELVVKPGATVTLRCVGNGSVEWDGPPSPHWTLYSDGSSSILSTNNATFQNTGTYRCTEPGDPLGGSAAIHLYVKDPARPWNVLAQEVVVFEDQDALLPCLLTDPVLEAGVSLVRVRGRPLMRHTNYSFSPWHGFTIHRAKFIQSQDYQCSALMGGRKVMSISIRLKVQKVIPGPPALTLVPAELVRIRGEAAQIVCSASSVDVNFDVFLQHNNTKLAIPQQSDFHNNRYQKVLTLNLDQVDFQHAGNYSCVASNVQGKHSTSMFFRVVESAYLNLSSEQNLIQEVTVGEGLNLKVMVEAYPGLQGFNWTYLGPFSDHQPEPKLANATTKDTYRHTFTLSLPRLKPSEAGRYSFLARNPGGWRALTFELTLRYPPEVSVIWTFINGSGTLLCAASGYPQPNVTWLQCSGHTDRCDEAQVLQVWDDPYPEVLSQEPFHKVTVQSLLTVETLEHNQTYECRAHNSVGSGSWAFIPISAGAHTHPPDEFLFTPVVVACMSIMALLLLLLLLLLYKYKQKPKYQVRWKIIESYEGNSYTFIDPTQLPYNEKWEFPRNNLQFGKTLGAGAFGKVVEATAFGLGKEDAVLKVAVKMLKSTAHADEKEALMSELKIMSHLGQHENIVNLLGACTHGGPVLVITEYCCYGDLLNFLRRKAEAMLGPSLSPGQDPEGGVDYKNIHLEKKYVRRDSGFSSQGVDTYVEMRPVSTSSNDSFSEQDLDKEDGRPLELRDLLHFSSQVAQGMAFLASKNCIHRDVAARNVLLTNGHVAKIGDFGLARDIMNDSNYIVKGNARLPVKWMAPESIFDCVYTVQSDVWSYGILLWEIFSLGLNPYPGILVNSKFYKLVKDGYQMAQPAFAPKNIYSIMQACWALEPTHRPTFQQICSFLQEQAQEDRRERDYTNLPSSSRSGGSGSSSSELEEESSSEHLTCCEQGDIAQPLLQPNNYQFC

Chain of cdk1 (P06493 whole entry, species assumed): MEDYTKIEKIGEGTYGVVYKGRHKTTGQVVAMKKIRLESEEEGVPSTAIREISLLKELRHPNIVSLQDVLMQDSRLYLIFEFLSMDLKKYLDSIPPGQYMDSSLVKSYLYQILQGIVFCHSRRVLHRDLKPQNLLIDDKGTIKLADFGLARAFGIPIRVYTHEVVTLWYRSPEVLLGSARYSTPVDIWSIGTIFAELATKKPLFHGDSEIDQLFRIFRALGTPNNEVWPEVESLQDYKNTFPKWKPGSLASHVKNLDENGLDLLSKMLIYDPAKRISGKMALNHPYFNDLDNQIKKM
Chain of cdk1 (P14635 whole entry partner, species assumed): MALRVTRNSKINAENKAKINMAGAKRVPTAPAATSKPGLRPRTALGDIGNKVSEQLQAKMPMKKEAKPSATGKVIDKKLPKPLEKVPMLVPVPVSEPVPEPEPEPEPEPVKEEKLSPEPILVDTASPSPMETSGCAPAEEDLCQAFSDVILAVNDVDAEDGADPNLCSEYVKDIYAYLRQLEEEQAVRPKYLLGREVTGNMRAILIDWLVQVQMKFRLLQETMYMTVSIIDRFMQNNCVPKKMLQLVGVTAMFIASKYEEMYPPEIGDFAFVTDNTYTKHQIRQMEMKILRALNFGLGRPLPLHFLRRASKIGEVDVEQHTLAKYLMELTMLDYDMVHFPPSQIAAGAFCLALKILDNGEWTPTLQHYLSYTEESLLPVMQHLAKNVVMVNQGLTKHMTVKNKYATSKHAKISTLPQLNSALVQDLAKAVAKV
Chain of C-Raf (P04049 whole entry, species assumed): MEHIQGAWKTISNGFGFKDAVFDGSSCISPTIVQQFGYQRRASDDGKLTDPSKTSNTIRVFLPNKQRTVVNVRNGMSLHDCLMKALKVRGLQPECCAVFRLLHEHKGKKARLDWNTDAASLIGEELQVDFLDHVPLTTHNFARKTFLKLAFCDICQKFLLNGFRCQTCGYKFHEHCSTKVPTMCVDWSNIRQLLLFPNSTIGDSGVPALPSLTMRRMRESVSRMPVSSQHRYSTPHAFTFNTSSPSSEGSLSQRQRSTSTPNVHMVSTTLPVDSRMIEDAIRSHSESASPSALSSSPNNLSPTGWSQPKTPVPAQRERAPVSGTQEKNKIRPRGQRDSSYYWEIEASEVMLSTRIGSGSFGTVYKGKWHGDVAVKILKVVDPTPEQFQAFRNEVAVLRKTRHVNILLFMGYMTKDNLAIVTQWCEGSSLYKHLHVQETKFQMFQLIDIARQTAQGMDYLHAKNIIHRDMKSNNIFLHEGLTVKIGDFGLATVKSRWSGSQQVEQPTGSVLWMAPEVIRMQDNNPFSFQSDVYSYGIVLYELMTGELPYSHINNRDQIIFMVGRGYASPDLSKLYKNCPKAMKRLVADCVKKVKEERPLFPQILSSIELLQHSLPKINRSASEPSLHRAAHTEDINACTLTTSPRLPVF
Chain of VEGFR2 (P35968 20-1356, species assumed): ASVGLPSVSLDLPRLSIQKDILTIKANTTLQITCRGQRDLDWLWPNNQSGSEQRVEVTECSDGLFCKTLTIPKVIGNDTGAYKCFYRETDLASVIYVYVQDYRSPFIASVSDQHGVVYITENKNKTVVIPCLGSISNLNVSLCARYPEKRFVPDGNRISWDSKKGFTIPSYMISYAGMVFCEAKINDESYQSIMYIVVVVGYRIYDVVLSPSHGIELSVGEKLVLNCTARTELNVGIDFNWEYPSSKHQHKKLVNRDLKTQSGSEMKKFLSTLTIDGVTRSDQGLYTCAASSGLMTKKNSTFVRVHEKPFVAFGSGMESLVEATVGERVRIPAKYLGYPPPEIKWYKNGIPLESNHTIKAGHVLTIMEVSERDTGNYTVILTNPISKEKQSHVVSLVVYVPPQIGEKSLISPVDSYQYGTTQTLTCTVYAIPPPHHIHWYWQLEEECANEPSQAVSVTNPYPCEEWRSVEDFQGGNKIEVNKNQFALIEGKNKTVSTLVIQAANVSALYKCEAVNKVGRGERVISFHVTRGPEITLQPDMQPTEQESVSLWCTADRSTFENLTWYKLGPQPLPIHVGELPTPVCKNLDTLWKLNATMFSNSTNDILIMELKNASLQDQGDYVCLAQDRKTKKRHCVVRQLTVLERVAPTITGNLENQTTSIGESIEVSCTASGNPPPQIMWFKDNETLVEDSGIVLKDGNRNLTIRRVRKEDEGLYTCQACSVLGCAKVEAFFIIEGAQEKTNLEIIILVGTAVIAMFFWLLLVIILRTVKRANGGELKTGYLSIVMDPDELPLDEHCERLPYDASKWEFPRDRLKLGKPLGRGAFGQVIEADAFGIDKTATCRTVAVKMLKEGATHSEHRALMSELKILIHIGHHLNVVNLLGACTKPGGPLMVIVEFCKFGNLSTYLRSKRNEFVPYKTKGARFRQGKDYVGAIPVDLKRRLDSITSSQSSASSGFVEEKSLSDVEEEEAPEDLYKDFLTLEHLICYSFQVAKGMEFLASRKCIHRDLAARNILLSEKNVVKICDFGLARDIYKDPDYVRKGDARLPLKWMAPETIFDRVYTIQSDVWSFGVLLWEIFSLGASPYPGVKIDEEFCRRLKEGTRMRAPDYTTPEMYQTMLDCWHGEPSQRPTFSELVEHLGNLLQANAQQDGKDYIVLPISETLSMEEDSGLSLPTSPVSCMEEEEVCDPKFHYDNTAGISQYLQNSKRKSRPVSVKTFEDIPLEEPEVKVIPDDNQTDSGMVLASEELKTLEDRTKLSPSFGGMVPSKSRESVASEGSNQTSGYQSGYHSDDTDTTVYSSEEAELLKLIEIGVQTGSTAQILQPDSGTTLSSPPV
Method for C-Raf: In general, in vitro kinase assays were performed using purified kinase and synthetic substrates under standard conditions using the Kinase Profiling service of Upstate Biotechnology. Briefly, for each assay 5-10 mU of purified kinase was used. […] Kinase activity was quantified by measuring ^33P incorporation by spotting an aliquot on P30 filters, washing in 50 mM phosphoric acid and scintillation counting. The buffer composition for C-Raf, JNK1, JNK2, JNK3, MEK1, MKK6, MKK7 was 50 mM Tris pH7.5, 0.1 mM EGTA, 10 mM Mg acetate and [γ-^33P-ATP]. The peptide substrates used were as follows: For C-Raf, 0.66 mg/ml MBP; for cdks, 0.1 mg/ml histone H1; for JNKs, 3 uM ATF2; for MEK1, 1 uM MAPK2; for MKK6, 1 uM of SAPK2a and for MKK7, 2 uM JNK1α.

`O=C1Nc2ccc(I)cc2C1=Cc1cc(Br)c(O)c(Br)c1` [GW5074, 5-Iodo-3-[(3,5-dibromo-4-hydroxyphenyl)methylene]-2-indolinone] gave an activity at 1 µM at C-Raf of 3%. Further, the “phosphorylation of ERK 1/2” value in the test on ERK 1/2 was “increase in the phosphorylation of ERK 1/2”. The “B-Raf activity in neurons” value with B-Raf is on record as “elevated further”. Besides, the “dephosphorylation of Forkhead in LK” value in the test with Forkhead is “reduces the dephosphorylation”. Moreover, the “effect of dominant-negative Akt on survival promotion” value in test [1] is “no effect on the ability of GW5074 to maintain neuronal survival”. In addition, the “effect on activity of cdk1” value at cdk1 is on record as “no effect”. Further, the “effect on activity of VEGFR2” value at VEGFR2 is given as “no effect”. Further, at c-fms, the “effect on activity of c-fms” value is reported as “no effect”.
